Data on three molecules can be found in US20110160303A1, “N-ALKYLCARBONYL-AMINO ACID ESTER AND N-ALKYLCARBONYL-AMINO LACTONE COMPOUNDS AND THEIR USE” (Edward Tak WEI, priority 2005, published 2011).

“Also recorded” adds a separate entry of the source.

The subject of data set [1] is asthma. The data set can be described thus: Study 10: adult-onset asthma, throat irritation and cough. Type of data set: in vivo, human. The method, then: A person had adult-onset asthma for 20 years. Triggers for attacks were tobacco smoke, dust, and changes in air temperature. They used Foradil® (formoterol fumarate) and Asmanex® (mometasone fuorate) twice a day to control their asthma, and monitored their pulmonary function with a portable device for measuring peak expiratory flow. They had daily episodes of both productive and non-productive cough. In 5 trials, when they felt throat irritation and a desire to cough, placement of 1 to 3 mg of (R)-2-[((1R,2S,5R)-2-isopropyl-5-methyl-cyclohexanecarbonyl)-amino]-propionic acid ethyl ester) provided rapid relief and was described as soothing and removed “tightness” in the chest. Peak expiratory flow improved from 320 L/min to 370 L/min. In 3 episodes where the test substance was administered in the midst of a productive cough spell, no significant effects were observed and the subject said that the applied compound had been expectorated. The subjective response to the long-acting NACE compound was definitely favourable. The subject remarked that the best time to use the NACE compound was after inhaling the crystalline Foradil® because this inhaled drug irritated their throat. Menthol lozenges were not effective for their airway discomfort because they only had mild anti-irritant actions and the sugar content of the lozenges interfered with their appetite for food.

In data set [2] the test system is skin above the upper lip. Description: Cooling sensation on facial skin, ointment applied to skin above the upper lip. Type of data set: in vivo, human. More on the design: key to refreshing cooling and absence of skin irritation or eye irritation (“perfect cool”): (*) denotes compounds with refreshing cooling and absence of skin irritation or eye irritation after facial skin or periorbital applications; a “perfect cool.”. The conditions noted are these: for Duration of Action On-Off (minutes): On (onset): 40 mM (~1% wt/vol) Aquaphor ointment, 40 to 70 mg, time to reach 2 units of coolness; for Duration of Action On-Off (minutes): duration (offset minus onset) / Duration of Action On-Off (minutes): Off (offset): 40 mM Aquaphor ointment; for Duration of Action On-Off (minutes): Off (offset): time when coolness drops below 2 units. The text has this: A reliable place for topical application is the skin above the upper lip (above the vermilion border of the lips), on the philtrum, lateral to the philtrum until the nasolabial folds, and on the lower nostrils (subnasale). This part of the face is known to be densely innervated with cold receptors, second only to the surfaces of the eyeball and anogenitalia. A second location is on or below the malar eminence (cheekbone). The skin above the cheekbone is thicker than above the lips, and therefore has a higher threshold for activation. At both loci, tingling, cool and cold sensations in the skin may be experienced and rated for time of onset and intensity.
The intensity of the subjective skin sensation is rated as 0, 1, 2 or 3 with: 0 as no change; 1 as slight coolness, cold, or tingling; 2 as clear-cut signal of coolness, cold, or tingling; and 3 as robust cooling or cold. The intervals for recording sensations are 5 to 10 minutes, until two successive zeroes are obtained. The results (shown in FIGS. 1 and 2) are averaged values of 4 to 6 separate trials in the same individual. The data are plotted using SigmaPlot® (Systat Software, Point Richmond Calif.) and a smoothing function with a negative exponential was used for analysis and statistical fit of the results. Confirmatory trials of cooling action of the long-acting NACE compounds were obtained in 2 to 4 individuals but not quantified for some because of the large number of chemicals that were evaluated.
The onset of drug action is taken as the time to reach 2 units of coolness intensity, and offset of drug action is the time when coolness intensity drops below 2, after previously surpassing 2 units. The duration of cooling action is defined as the offset time minus the onset time. […] The quality of the sensation is noted, for example, as pure refreshing coolness, or if the sensation is accompanied by irritation (stinging or burning). The quality of the sensation is not rated for intensity.
For bioassay on the skin, approximately 30 mg was stirred and dissolved in 3 g of warm liquid Aquaphor® ointment to a yield a 40 mM (˜1% wt/vol) ointment. The exact amount was adjusted so that the molar equivalent was about 35 to 40 mM. After cooling, 40 to 70 mg of the solid ointment was placed on the tip of a plastic stick and applied to the skin above the upper lip, on the philtrum, and lateral to the philtrum, up to the nasolabial folds, of test subjects and the onset and duration of cooling sensations noted.
The intensity of the subjective skin sensation was rated as 0, 1, 2 or 3 with: 0 as no change; 1 as slight coolness, cold, or tingling; 2 as clear signal of coolness, cold, or tingling; and 3 as robust cooling or cold. The intervals for recording sensations were 5 to 10 minutes, until two successive zeroes were obtained. The results (shown in FIGS. 1 and 2) are averaged values of 4 to 6 separate trials in the same individual. The data are plotted using SigmaPlot® (Systat Software, Point Richmond, Calif., USA) and a smoothing function with a negative exponential was used for analysis and statistical fit of the results.
The onset of drug action was taken as the time to reach 2 units of coolness intensity, and offset of drug action was the time when coolness intensity drops below 2, after previously surpassing 2 units. The duration of cooling action was defined as the offset time minus the onset time. […] The quality of the sensation was also noted: such as pure refreshing coolness, or if the sensation was accompanied by irritation (stinging or burning). The quality of the sensation was not rated for intensity.
Test compounds were singly applied to the skin above the upper lips at a 40 to 70 mg dose of a 1% wt/vol ointment.

Data set [3] concerns oral cavity. Description: Oral cavity test, substance placed on dorsal surface of the tongue. The note with it: dose of 1 to 2 mg, normal subjects. Type of data set: in vivo, human. The method, then: The subject is instructed to close and hold the substance in the mouth for at least 10 seconds and not to swallow. The description of sensations is then recorded at 5 minute intervals.
The compounds of Formula (1) and (2) are white crystalline solids at room temperatures. These compounds were tested as such, or mixed 1:1 with powdered or granulated sugar. The test substances were applied at 1 to 5 mg on the mid-point of the dorsal surface of the tongue using a metal spatula or a plastic applicator. After depositing the test substance on the tongue, the subject was instructed to keep the mouth closed and allow the fluids of the mouth to inter-mix with the test substance and to distribute it to the back of the mouth (oropharynx). The presence and duration of subjective sensations from the mouth was then noted.
In normal subjects, the effects of the D-Ala methyl and ethyl ester compounds falling within Formula (1) ((R)-2-[((1R,2S,5R)-2-isopropyl-5-methyl-cyclohexanecarbonyl)-amino]-propionic acid methyl or ethyl ester)) were examined. Three doses of 1, 2 and 4 mg per application were examined and compared to a similar dose of the L-Ala methyl or ester analog ((S)-2-[((1R,2S,5R)-2-isopropyl-5-methyl-cyclohexanecarbonyl)-amino]-propionic acid methyl or ethyl ester). At the 2 or 4 mg dose, all compounds produced pleasant and robust cooling sensations on the tongue, extending down to the back of throat, and lasted for about 30 minutes and longer. The onset effect was usually within 30 seconds of application.

Data set [4] has as its system face. The data set can be described thus: Study 3: towelette used to wipe the face. Type of data set: in vivo, human. The method, then:
2-Isopropyl-5-methyl-cyclohexanecarbonyl D-alanine methyl ester was dissolved in warm 10% propylene-glycol/90% distilled water solution to give a concentration of either 0.1 or 0.5% wt/vol (1 or 5 mg/mL). Six to seven milliliters of these solutions were then applied with a pipette onto a paper napkin (Luncheon Napkins, Kirkland Signature brand from Costco, Inc.) The napkin was 1-ply with a 30.4×29.5 cm dimension. Each napkin was then hermetically sealed in a plastic envelope (Foodsaver by Tilia). On two separate occasions involving golfing trips to Los Angeles, Calif., USA, where air temperatures exceeded […] (90° F.), these towelettes were used to wipe the face. Pleasant cooling sensations were obtained that lasted for about 10 minute for the 0.1% concentration towelette and about 60 minutes for the 0.5% towelette.

Data set [5] deals with periorbital area. The data set can be described thus: Study 4: 1% ointment applied bilaterally to the periorbital area. Type of data set: in vivo, human. The text has this: A 1% preparation of 2-isopropyl-5-methyl-cyclohexanecarbonyl D-alanine methyl ester in Aquaphor® ointment was applied bilaterally to the periorbital area of four individuals. […] This alerting effect lasted for about one hour. This experiment was then repeated three days later in the evening with the same individuals whose occupations required daylong activities before a computer screen. Again, application of the ointment about the periorbital area was reported to relieve fatigue, enhance visual acuity, and to increase attention span and focus. Sensations of refreshment and improved mood were also noted.

The subject of data set [6] is irritated skin (acneiform dermatitis treated with Tazorac). The data set can be described thus: Study 5: ointment on skin irritated by Tazorac. Type of data set: in vivo, human. The note with it: 1.5% in Aquaphor. The procedure:
A person was treated with Tazorac® (tazarotene topical gel) for acneiform dermatitis on their cheeks. After using these medications for several days, they noted redness, itching, and uncomfortable burning sensations on the skin where these medications had been placed. A 1.5% preparation of 2-isopropyl-5-methyl-cyclohexanecarbonyl α-alanine methyl ester in Aquaphor® ointment was then applied to the sites of irritation. Sensations of coolness on the skin were noted within 5 minutes and lasting for an average of 30 minutes. The discomfort of the irritated skin was abated within five minutes and the subject felt better.

The subject of data set [7] is tongue. Description: Threshold for cooling on the tongue. Type of data set: in vivo, human. The note with it: threshold for cooling on the tongue. The method, then:
Watson et al. (U.S. Pat. No. 4,178,459) tested the properties of N-substituted p-menthane carboxamides on volunteers by putting filter paper (1×1 cm), impregnated with a known amount of compound, onto the dorsal surface of the tongue of the test subject. After 30 seconds, the subject was required to report presence or absence of a cooling effect. […] The average threshold of (−)-menthol for 6 subjects was 0.25 μg, but there was a 100-fold variation in individual sensitivity. As noted above, coolness signals detected from the dorsal surface of the tongue may be confounded by gustatory, olfactory, and other variables, as well as by dilution from saliva. The octanol/water partition coefficients (given in log P units) for a number of compounds were determined and are shown in Table 7, together with the threshold for cooling on the tongue tested at 40 mM. […] A longer duration of action was not precisely matched with log P values.

A short description of data set [8]: Octanol/water partition coefficient. Type of data set: physicochemical. The procedure:
The octanol/water partition coefficients (given in log P units) for a number of compounds were determined and are shown in Table 7, together with the threshold for cooling on the tongue tested at 40 mM. […] A longer duration of action was not precisely matched with log P values.

In data set [9] the target is T1, TRP-M8 (Homo sapiens, UniProt Q7Z2W7).
T1 construct: expressed in transfected cells
The note with it: cited from earlier work.

Setting [10] is: 1% in Aquaphor, periorbital, four individuals.

T1 sequence (Q7Z2W7 whole entry, species assumed): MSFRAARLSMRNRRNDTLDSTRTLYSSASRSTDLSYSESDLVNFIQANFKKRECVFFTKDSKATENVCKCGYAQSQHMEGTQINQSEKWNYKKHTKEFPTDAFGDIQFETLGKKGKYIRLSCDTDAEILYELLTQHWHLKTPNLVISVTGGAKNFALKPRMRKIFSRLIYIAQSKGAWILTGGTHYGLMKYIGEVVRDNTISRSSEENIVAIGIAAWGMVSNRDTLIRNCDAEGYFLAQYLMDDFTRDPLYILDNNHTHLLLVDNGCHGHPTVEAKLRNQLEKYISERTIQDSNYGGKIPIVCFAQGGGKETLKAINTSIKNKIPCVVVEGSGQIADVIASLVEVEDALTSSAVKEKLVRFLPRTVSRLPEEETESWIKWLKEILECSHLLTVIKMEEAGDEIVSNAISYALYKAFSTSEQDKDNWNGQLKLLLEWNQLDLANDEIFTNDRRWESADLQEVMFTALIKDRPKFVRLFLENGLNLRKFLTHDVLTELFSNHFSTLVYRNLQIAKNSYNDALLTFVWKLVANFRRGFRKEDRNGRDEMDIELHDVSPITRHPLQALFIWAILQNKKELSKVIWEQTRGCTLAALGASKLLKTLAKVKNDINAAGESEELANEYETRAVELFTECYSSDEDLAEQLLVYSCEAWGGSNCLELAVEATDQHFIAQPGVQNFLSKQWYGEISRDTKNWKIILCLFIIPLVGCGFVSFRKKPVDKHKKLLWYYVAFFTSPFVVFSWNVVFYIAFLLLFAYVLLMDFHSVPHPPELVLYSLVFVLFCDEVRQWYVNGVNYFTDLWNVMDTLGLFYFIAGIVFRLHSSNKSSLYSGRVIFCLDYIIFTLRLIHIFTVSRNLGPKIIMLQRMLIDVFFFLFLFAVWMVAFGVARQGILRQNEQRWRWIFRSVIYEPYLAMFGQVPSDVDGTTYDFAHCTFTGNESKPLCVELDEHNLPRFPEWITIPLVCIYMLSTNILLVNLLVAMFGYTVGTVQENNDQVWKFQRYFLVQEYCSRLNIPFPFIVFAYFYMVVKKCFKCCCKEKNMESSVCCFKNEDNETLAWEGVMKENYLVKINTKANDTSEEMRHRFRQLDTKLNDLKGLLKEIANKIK

Turning to `CCOC(=O)[C@@H](C)NC(=O)[C@@H]1C[C@H](C)CC[C@H]1C(C)C` [(R)-2-[((1R,2S,5R)-2-isopropyl-5-methyl-cyclohexanecarbonyl)-amino]-propionic acid ethyl ester], the Peak expiratory flow in data set [1] (1 to 3 mg, improved from 320 L/min) is reported as 370 L/min. Besides, in data set [1] (asthmatic), the “relief of throat irritation, desire to cough and airway discomfort” value was “rapid relief”.

Regarding `COC(=O)[C@@H](C)NC(=O)[C@@H]1C[C@H](C)CC[C@H]1C(C)C` [D-Ala Me Ester, (R)-2-[((1R,2S,5R)-2-isopropyl-5-methyl-cyclohexanecarbonyl)-amino]-propionic acid methyl ester], the “Duration of Skin Cooling” value in data set [2] (40 mM (1% wt/vol) ointment, skin above upper lip) was 1.9 h. Further, in data set [2] (skin above upper lip), the “Duration of Action On-Off (minutes): On (onset)” value is 1 min, the “Duration of Action On-Off (minutes): duration (offset minus onset)” value stood at 114 min and the “Duration of Action On-Off (minutes): Off (offset)” value was found to be 115 min. Moreover, the “refreshing cooling and absence of skin irritation or eye irritation (“perfect cool”)” value in data set [2] (after facial skin or periorbital applications) is on record as “D-Ala Me Ester (*)”. The “duration of cooling sensations on the tongue” value in data set [3] is recorded as “about 30 minutes”. Besides, in [4] (0.1% wt/vol in 10% propylene-glycol/90% water on napkin, face), the “duration of pleasant cooling sensations, 0.1% towelette” value is recorded as “about 10 minute”. In data set [4] (0.1 or 0.5% towelette), the eye irritation entry is “No eye irritation”. In data set [4] (0.5% wt/vol in 10% propylene-glycol/90% water on napkin, face), the “duration of pleasant cooling sensations, 0.5% towelette” value is recorded as “about 60 minutes”. For the same molecule, in data set [5] (1% in Aquaphor, periorbital), the “duration of alerting effect” value is given as “about one”. In data set [5] (setting [10]), the “duration of coolness on the skin (average)” value is 30 min and the “onset of coolness on the skin” value is no more than 1 min. Also, the “irritation of skin and eye surfaces” value in data set [5] (periorbital application) is reported as “No irritation of the eye surfaces”. Further, in [6], the “duration of coolness on irritated skin (average)” value is 30 min and the “time until discomfort of the irritated skin was abated” value is given as “five”. In addition, the “onset of sensations of coolness on irritated skin” value in [6] (one subject) is no more than 5 min.

For `COc1ccc(NC(=O)C2CC(C)CCC2C(C)C)cc1` (stereo not drawn) [WS-12, N-p-methoxyphenyl-p-menthane-carboxamide, reference compound], in [2] (skin above upper lip), the “Duration of Action On-Off (minutes): On (onset)” value is 13 min, the “Duration of Action On-Off (minutes): duration (offset minus onset)” value amounted to 25 min and the “Duration of Action On-Off (minutes): Off (offset)” value is 38 min. In data set [7], the Threshold tongue amounted to 0.2 µg. Besides, the logP (as a rule, the decadic logarithm of the partition coefficient of the neutral form, usually between octanol and water) in data set [8] came to 5.3. For the same molecule, the “potency at TRP-M8” value in [9] is given as “more potent at TRP-M8 than WS-5; also recorded: potent”.
